Assay results: ChEMBL document CHEMBL3616421, “Discovery of novel isatin-dehydroepiandrosterone conjugates as potential anticancer agents” (Bioorg Med Chem Lett, 2015)
Activity calls are given as the source filed them. The calls are words filed in the database; no cut-off is given here.

Key:
Format in all cases: functional, cell-based
[1] = test system: HepG2; assay: Cytotoxicity against human HepG2 cells assessed as growth inhibition after 72 hrs by MTT assay; details: for IC50: HepG2, 72 h
[2] = (§1) Cytotoxicity against human HuH7 cells assessed as growth inhibition after 72 hrs by MTT assay; details: Huh-7, 72 h
[3] = (§2) Cytotoxicity against human A875 cells assessed as growth inhibition after 72 hrs by MTT assay; details: A875, 72 h
[4] = test system: Huh-7; assay: as §1
[5] = test system: A875; assay: as §2
[6] = Cytotoxicity against 5-fluorouracil-resistant human Bel7402 cells assessed as growth inhibition after 72 hrs by MTT assay; details: Bel-7402, 72 h
[7] = test system: HepG2; assay: Cytotoxicity against human HepG2 cells assessed as decrease in cell level at 10 ug/ml after 48 hrs by inverted microscopic analysis
[8] = test system: HepG2; assay: Cytotoxicity against human HepG2 cells assessed as cell shrinkage at 10 ug/ml after 48 hrs by inverted microscopic analysis

Row | Structure (SMILES) | IC50 [1] | IC50 [2] | IC50 [3] | growth inhibition (GI) [1] | growth inhibition (GI) [4] | growth inhibition (GI) [5] | IC50 [6] | Activity [7] | Activity [8]
1 | C[C@]12CC[C@H](O)CC1=CC[C@@H]1[C@@H]2CC[C@]2(C)/C(=N/Nc3ncccc3Cl)CC[C@@H]12 | > 90 µM | > 90 µM | > 90 µM |  |  |  |  |  | 
2 | C[C@]12CC[C@H](O)CC1=CC[C@@H]1[C@@H]2CC[C@]2(C)/C(=N/N=C3\C(=O)Nc4cc(F)ccc43)CC[C@@H]12 | 19.7 µM | 22.3 µM | 29.6 µM | Dose-dependent effect | Dose-dependent effect | Dose-dependent effect | 12.8 µM |  | 
3 | C[C@]12CC[C@H](O)CC1=CC[C@@H]1[C@@H]2CC[C@]2(C)/C(=N/Nc3ccccc3)CC[C@@H]12 | 43.1 µM | 55.4 µM | > 100 µM |  |  |  | 29.9 µM |  | 
4 | C[C@]12CC[C@H](O)CC1=CC[C@@H]1[C@@H]2CC[C@]2(C)/C(=N/Cc3ccccc3)CC[C@@H]12 | 32.6 µM | > 100 µM | 42.5 µM |  |  |  | > 100 µM |  | 
5 | C[C@]12CC[C@H](O)CC1=CC[C@@H]1[C@@H]2CC[C@]2(C)/C(=N/N=C3\C(=O)Nc4ccc(Br)cc43)CC[C@@H]12 | 16.2 µM | 13.9 µM | 14.8 µM | Dose-dependent effect | Dose-dependent effect | Dose-dependent effect | 5.97 µM | Active | Active
6 | C[C@]12CC[C@H](O)CC1=CC[C@@H]1[C@@H]2CC[C@]2(C)/C(=N/N=C3\C(=O)Nc4ccc([N+](=O)[O-])cc43)CC[C@@H]12 | 27.4 µM | 30.6 µM | 69 µM |  |  |  | 10.1 µM |  | 
7 | O=c1[nH]cc(F)c(=O)[nH]1 [FLUOROURACIL] | > 150 µM | > 100 µM | > 150 µM | Dose-dependent effect | Dose-dependent effect | Dose-dependent effect | > 700 µM |  | 
8 | CC(C)c1ccc(/N=C2\CC[C@H]3[C@@H]4CC=C5C[C@@H](O)CC[C@]5(C)[C@H]4CC[C@]23C)cc1 | 44.3 µM | > 90 µM | 61.5 µM |  |  |  | > 90 µM |  | 
9 | C[C@]12CC[C@H](O)CC1=CC[C@@H]1[C@@H]2CC[C@]2(C)/C(=N/c3ccccc3)CC[C@@H]12 | 63.5 µM | > 100 µM | 82.7 µM |  |  |  | > 100 µM |  | 
10 | C[C@]12CC[C@H](O)CC1=CC[C@@H]1[C@@H]2CC[C@]2(C)/C(=N/N=C3\C(=O)Nc4ccc(I)cc43)CC[C@@H]12 | 22.5 µM | > 70 µM | 43.7 µM |  |  |  | 14.1 µM |  | 
11 | C[C@]12CC[C@H](O)CC1=CC[C@@H]1[C@@H]2CC[C@]2(C)/C(=N/N=C3\C(=O)Nc4ccccc43)CC[C@@H]12 | 13.3 µM | 28.2 µM | 25.2 µM | Dose-dependent effect | Dose-dependent effect | Dose-dependent effect | 21.8 µM | Active | Active
